Test results published in patent publication EP1874270B1, “PHARMACEUTICAL AEROSOL COMPOSITION” (priority 2005, dated 2006).
One block for each compound: values may come before it.

Columns and labels:
[1] = Colloidal solubilization of the active agent with non-ionic surfactant and lecithin
[2] = Inhalation experiments: local anesthetic effect; format: in vivo; conditions: inhalation of 0.55 % (w/v) lidocaine base in colloidal tyloxapol/DMPC solution (Example 5); effect undesirable in this context
Source text: Sometimes, but not necessarily, bad taste is accompanied by mucosal irritations caused by the substance. This occurs in various degrees which, in the case of application by inhalation, may range from slight irritation of the pharynx and/or respiratory tract to cough, fits of coughing, bronchoconstrictions and bronchospasms. […] In a further embodiment of the invention, the preparation accordingly contains an active agent which is irritating to the mucosa or causes coughing or bronchoconstrictions. In this connection, active agents from the group of corticoids, betamimetics, anti-cholinergics, anesthetics and antiinfectives are again preferred.
After a sterile filtration, the colloidal solution was filled into pre-sterilized single dose containers (0.5 - 3 ml) of glass and polypropylene.

[3] = format: physicochemical
Experimental: Buffered aqueous solutions of tyloxapol, DMPC and tyloxapol in a mixture with DMPC were prepared. The saturation solubility of budesonide in these solutions was measured by adding an excess of budesonide and treating the sample with heat and ultrasound and subsequently allowing it to stand for equilibration. The equilibrated samples were filtered through a membrane filter with a pore width of 0.22 µm and the content of budesonide in the filtrate was determined. […]

[4] = Polysorbate 80 0.10 wt.-%, Lipoid S100 1.0 wt.-%, ratio 1:10
[5] = Polysorbate 80 0.50 wt.-%, Lipoid S100 3.0 wt.-%, ratio 1 : 6

- Fluticasone prop. solubilized [1, 4]: 0.07 mg/mL
- Fluticasone prop. solubilized [1, 5]: 0.18 mg/mL
SMILES: CCC(=O)O[C@]1(C(=O)SCF)[C@H](C)C[C@H]2[C@@H]3C[C@H](F)C4=CC(=O)C=C[C@]4(C)[C@@]3(F)[C@@H](O)C[C@@]21C [Fluticasone prop., fluticasone propionate]

SMILES: CCN(CC)CC(=O)Nc1c(C)cccc1C [lidocaine]
- local anesthetic effect of lidocaine [2]: reduced

- saturation concentration of budesonide in DMPC solutions [3]: could not be increased
- Budesonide solubilized [1, 4]: 0.36 mg/mL
- Budesonide solubilized ([1]; Polysorbate 80 0.15 wt.-%, Lipoid S100 1.5 wt.-%, ratio 1:10): 0.43 mg/mL
- Budesonide solubilized ([1]; Polysorbate 80 0.25 wt.-%, Lipoid S100 1.5 wt.-%, ratio 1 : 6): 0.47 mg/mL
- Budesonide solubilized ([1]; Polysorbate 80 0.40 wt.-%, Lipoid S100 1.5 wt.-%, ratio 1 : 3.75 (for comparison and/or reference only)): 0.50 mg/mL
- Budesonide solubilized ([1]; Polysorbate 80 0.50 wt.-%, Lipoid S100 2.0 wt.-%, ratio 1:4 (for comparison and/or reference only)): 0.83 mg/mL
- Budesonide solubilized [1, 5]: 1.09 mg/mL
- Budesonide solubilized ([1]; Solutrol HS 15 0.10 wt.-%, Lipoid S100 1.5 wt.-%, ratio 1 : 15): 0.43 mg/mL
- Budesonide solubilized ([1]; Solutrol HS 15 0.25 wt.-%, Lipoid S100 1.5 wt.-%, ratio 1 : 6): 0.47 mg/mL
- Budesonide solubilized ([1]; Solutrol HS 15 0.50 wt.-%, Lipoid S100 1.5 wt.-%, ratio 1 : 3.33 (for comparison and/or reference only)): 0.48 mg/mL
- Budesonide solubilized ([1]; Vitamin E TPGS 0.10 wt.-%, Lipoid S100 1.0 wt.-%, ratio 1 : 10): 0.37 mg/mL
- Budesonide solubilized ([1]; Vitamin E TPGS 0.10 wt.-%, Lipoid S100 1.5 wt.-%, ratio 1 : 15): 0.44 mg/mL
- Budesonide solubilized ([1]; Vitamin E TPGS 0.25 wt.-%, Lipoid S100 1.5 wt.-%, ratio 1 : 6): 0.46 mg/mL
- Budesonide solubilized ([1]; Vitamin E TPGS 0.50 wt.-%, Lipoid S100 1.5 wt.-%, ratio 1 : 3.33 (for comparison and/or reference only)): 0.48 mg/mL
- Budesonide solubilized ([1]; Vitamin E TPGS 0.50 wt.-%, Lipoid S100 2.0 wt.-%, ratio 1 : 4 (for comparison and/or reference only)): 0.80 mg/mL
- Budesonide solubilized ([1]; Vitamin E TPGS 0.50 wt.-%, Lipoid S100 3.0 wt.-%, ratio 1 : 6): 1.09 mg/mL
- budesonide colloidally solubilized at a concentration of ([1]; vitamin E TPGS 0.04 wt.-%, polysorbate 80 0.06 wt.-%, lecithin 1.0 wt.-%): 0.38 mg/mL
- budesonide colloidally solubilized at a concentration of ([1]; vitamin E TPGS 0.2 wt.-%, polysorbate 80 0.3 wt.-%, lecithin 3.0 wt.-%): 0.95 mg/mL
SMILES: CCCC1O[C@@H]2C[C@H]3[C@@H]4CCC5=CC(=O)C=C[C@]5(C)[C@H]4[C@@H](O)C[C@]3(C)[C@]2(C(=O)CO)O1 (stereo partly drawn) [Budesonide, budesonide]
